We go through 1 compound from ChEMBL document CHEMBL3351986, “Probing linker design in citric acid-ciprofloxacin conjugates” (2014).

Values after ≈ are worked out from the molar mass of the structure shown. Some results are limits rather than exact numbers.

The first test deals with Staphylococcus aureus. Put plainly: Ratio of compound MIC to ciprofloxacin MIC for Staphylococcus aureus NCTC 13142 after 18 hrs by micro dilution method.
Details: not given
The class given is functional.
As for `O=C(O)CC(O)(CC(=O)NCC(=O)N1CCN(c2cc3c(cc2F)c(=O)c(C(=O)O)cn3C2CC2)CC1)C(=O)O` (racemic), the Ratio is 18.8.

For another test, the system named is Staphylococcus aureus. Put plainly: Ratio of compound MIC to ciprofloxacin MIC for Staphylococcus aureus BIG 52 after 18 hrs by micro dilution method. In kind it is functional.
Details: not given
As for `O=C(O)CC(O)(CC(=O)NCC(=O)N1CCN(c2cc3c(cc2F)c(=O)c(C(=O)O)cn3C2CC2)CC1)C(=O)O` (racemic), the Ratio is on record as 18.8.

A further test has as its system Staphylococcus epidermidis. Put plainly: Ratio of compound MIC to ciprofloxacin MIC for Staphylococcus epidermidis NCTC 11047 after 18 hrs by micro dilution method.
Details: not given
The class given is functional.
As for `O=C(O)CC(O)(CC(=O)NCC(=O)N1CCN(c2cc3c(cc2F)c(=O)c(C(=O)O)cn3C2CC2)CC1)C(=O)O` (racemic), the Ratio stood at 75.3.

A further test has as its system Staphylococcus epidermidis. Put plainly: Ratio of compound MIC to ciprofloxacin MIC for Staphylococcus epidermidis NCTC 2749 after 18 hrs by micro dilution method. In kind it is functional.
Details: not given
For the compound `O=C(O)CC(O)(CC(=O)NCC(=O)N1CCN(c2cc3c(cc2F)c(=O)c(C(=O)O)cn3C2CC2)CC1)C(=O)O` (racemic), the Ratio was 18.8.

The next test deals with Staphylococcus haemolyticus. The experiment in a line: Ratio of compound MIC to ciprofloxacin MIC for Staphylococcus haemolyticus NCTC 11042 after 18 hrs by micro dilution method. The class given is functional.
Details: not given
With `O=C(O)CC(O)(CC(=O)NCC(=O)N1CCN(c2cc3c(cc2F)c(=O)c(C(=O)O)cn3C2CC2)CC1)C(=O)O` (racemic), the Ratio turned out to be 75.3.

For another test, the system named is Escherichia coli. Put plainly: Ratio of compound MIC to ciprofloxacin MIC for Escherichia coli NCTC 10418 after 18 hrs by micro dilution method. In kind it is functional.
Details: not given
`O=C(O)CC(O)(CC(=O)NCC(=O)N1CCN(c2cc3c(cc2F)c(=O)c(C(=O)O)cn3C2CC2)CC1)C(=O)O` (racemic): the Ratio is reported as 1.23.

A further test has as its system Pseudomonas aeruginosa. The experiment in a line: Ratio of compound MIC to ciprofloxacin MIC for Pseudomonas aeruginosa environmental isolate after 18 hrs by micro dilution method. In kind it is functional.
Details: not given
As to `O=C(O)CC(O)(CC(=O)NCC(=O)N1CCN(c2cc3c(cc2F)c(=O)c(C(=O)O)cn3C2CC2)CC1)C(=O)O` (racemic), the Ratio is reported as 4.72.

The subject of a further test is Pseudomonas aeruginosa. Put plainly: Ratio of compound MIC to ciprofloxacin MIC for Pseudomonas aeruginosa BIG 37 clinical isolate after 18 hrs by micro dilution method. In kind it is functional.
Details: not given
Take `O=C(O)CC(O)(CC(=O)NCC(=O)N1CCN(c2cc3c(cc2F)c(=O)c(C(=O)O)cn3C2CC2)CC1)C(=O)O` (racemic): the Ratio is 4.7.

In a further test the test system is Pseudomonas aeruginosa. The experiment in a line: Ratio of compound MIC to ciprofloxacin MIC for Pseudomonas aeruginosa NCTC 10662 after 18 hrs by micro dilution method. The class given is functional.
Details: not given
Consider `O=C(O)CC(O)(CC(=O)NCC(=O)N1CCN(c2cc3c(cc2F)c(=O)c(C(=O)O)cn3C2CC2)CC1)C(=O)O` (racemic), for which the Ratio is 4.72.

For another test, the system named is Pseudomonas aeruginosa. The experiment in a line: Ratio of compound MIC to ciprofloxacin MIC for Pseudomonas aeruginosa BIG 63 after 18 hrs by micro dilution method. The class given is functional.
Details: not given
As for `O=C(O)CC(O)(CC(=O)NCC(=O)N1CCN(c2cc3c(cc2F)c(=O)c(C(=O)O)cn3C2CC2)CC1)C(=O)O` (racemic), the Ratio amounted to 18.8.

In a further test the test system is Serratia marcescens. Put plainly: Ratio of compound MIC to ciprofloxacin MIC for Serratia marcescens BIG 11 NCTC 1377 after 18 hrs by micro dilution method.
Details: not given
The class given is functional.
For `O=C(O)CC(O)(CC(=O)NCC(=O)N1CCN(c2cc3c(cc2F)c(=O)c(C(=O)O)cn3C2CC2)CC1)C(=O)O` (racemic), the Ratio came to 4.91.

The next test concerns Burkholderia cepacia. Put plainly: Ratio of compound MIC to ciprofloxacin MIC for Burkholderia cepacia BIG 9 NCTC 10744 after 18 hrs by micro dilution method. In kind it is functional.
Details: not given
As to `O=C(O)CC(O)(CC(=O)NCC(=O)N1CCN(c2cc3c(cc2F)c(=O)c(C(=O)O)cn3C2CC2)CC1)C(=O)O` (racemic), the Ratio was found to be 9.4.

Another test relates to Burkholderia cepacia. Put plainly: Ratio of compound MIC to ciprofloxacin MIC for Burkholderia cepacia BIG 117 after 18 hrs by micro dilution method. In kind it is functional.
Details: not given
Consider `O=C(O)CC(O)(CC(=O)NCC(=O)N1CCN(c2cc3c(cc2F)c(=O)c(C(=O)O)cn3C2CC2)CC1)C(=O)O` (racemic), for which the Ratio was found to be 4.7.

Another test relates to Burkholderia cepacia. The experiment in a line: Ratio of compound MIC to ciprofloxacin MIC for Burkholderia cepacia BIG 118 after 18 hrs by micro dilution method. In kind it is functional.
Details: not given
`O=C(O)CC(O)(CC(=O)NCC(=O)N1CCN(c2cc3c(cc2F)c(=O)c(C(=O)O)cn3C2CC2)CC1)C(=O)O` (racemic): the Ratio is listed as 18.8.

The test system of another test is Burkholderia cepacia. The experiment in a line: Ratio of compound MIC to ciprofloxacin MIC for Burkholderia cepacia BIG 119 after 18 hrs by micro dilution method. The class given is functional.
Details: not given
With `O=C(O)CC(O)(CC(=O)NCC(=O)N1CCN(c2cc3c(cc2F)c(=O)c(C(=O)O)cn3C2CC2)CC1)C(=O)O` (racemic), the Ratio is listed as 4.7.

The next test relates to Burkholderia cepacia. Put plainly: Ratio of compound MIC to ciprofloxacin MIC for Burkholderia cepacia BIG 120 after 18 hrs by micro dilution method. In kind it is functional.
Details: not given
As to `O=C(O)CC(O)(CC(=O)NCC(=O)N1CCN(c2cc3c(cc2F)c(=O)c(C(=O)O)cn3C2CC2)CC1)C(=O)O` (racemic), the Ratio is on record as 9.4.

A further test relates to Stenotrophomonas maltophilia. The experiment in a line: Ratio of compound MIC to ciprofloxacin MIC for Stenotrophomonas maltophilia N1127 after 18 hrs by micro dilution method. In kind it is functional.
Details: not given
On to `O=C(O)CC(O)(CC(=O)NCC(=O)N1CCN(c2cc3c(cc2F)c(=O)c(C(=O)O)cn3C2CC2)CC1)C(=O)O` (racemic), for which the Ratio was 9.4.

For the next test, the system named is Stenotrophomonas maltophilia. The experiment in a line: Ratio of compound MIC to ciprofloxacin MIC for Stenotrophomonas maltophilia N1124 after 18 hrs by micro dilution method. The class given is functional.
Details: not given
In the case of `O=C(O)CC(O)(CC(=O)NCC(=O)N1CCN(c2cc3c(cc2F)c(=O)c(C(=O)O)cn3C2CC2)CC1)C(=O)O` (racemic), the Ratio is on record as 4.7.

The subject of a further test is Staphylococcus aureus. The experiment in a line: Antimicrobial activity against Staphylococcus aureus NCTC 13142 after 18 hrs by micro dilution method. In kind it is functional. The note with it: NCTC 13142, 18 h.
In turn, `O=C(O)CC(O)(CC(=O)NCC(=O)N1CCN(c2cc3c(cc2F)c(=O)c(C(=O)O)cn3C2CC2)CC1)C(=O)O` (racemic) displayed an MIC of 16 µg/mL (≈ 28.4 µM).

In another test the test system is Staphylococcus aureus. The experiment in a line: Antimicrobial activity against Staphylococcus aureus HG-1 after 18 hrs by micro dilution method. In kind it is functional. The note with it: HG-1, 18 h.
Compound `O=C(O)CC(O)(CC(=O)NCC(=O)N1CCN(c2cc3c(cc2F)c(=O)c(C(=O)O)cn3C2CC2)CC1)C(=O)O` (racemic) yielded a minimum inhibitory concentration (MIC) of more than 36 µg/mL.

The test system of a further test is Staphylococcus aureus. Put plainly: Antimicrobial activity against Staphylococcus aureus (Oxford) NCTC 6571 after 18 hrs by micro dilution method. The class given is functional. The note with it: (Oxford) NCTC 6571, 18 h.
As for `O=C(O)CC(O)(CC(=O)NCC(=O)N1CCN(c2cc3c(cc2F)c(=O)c(C(=O)O)cn3C2CC2)CC1)C(=O)O` (racemic), the minimal inhibitory concentration (MIC) worked out at 16 µg/mL (≈ 28.4 µM).

In a further test the test system is Staphylococcus aureus. The experiment in a line: Antimicrobial activity against Staphylococcus aureus NCTC 13143 after 18 hrs by micro dilution method. In kind it is functional. The note with it: NCTC 13143, 18 h.
`O=C(O)CC(O)(CC(=O)NCC(=O)N1CCN(c2cc3c(cc2F)c(=O)c(C(=O)O)cn3C2CC2)CC1)C(=O)O` (racemic) registered a minimal inhibitory concentration (MIC) of more than 36 µg/mL.

In general, MIC refers to the smallest concentration in the dilution series that meets the test's criterion for growth inhibition.
